For orientation: IC50 means the midpoint of a concentration-inhibition curve.

SMILES strings stand for the structures. Like-named read-outs stand apart in the source and are kept apart here.

We go through 1 molecule from paper PMC4643019, “Imaging Sites of Inhibition of Proteolysis in Pathomimetic Human Breast Cancer Cultures by Light-Activated Ruthenium Compound” (PLoS ONE, 2015).

Data set [1] can be described thus: Photoinduced ligand exchange quantum yield. It counts as physicochemical. On the procedure:
Electronic absorption spectra were measured with a Hewlett-Packard 8453 diode array spectrophotometer. The ligand exchange quantum yield experiments were performed with a 150 W Xe arc lamp (USHIO) in a Milliarc lamp housing unit with an LPS-220 power supply and an LPS-221 igniter (PTI). A bandpass filter (Thorlabs) and long-pass filter (CVI Melles Griot) were used to select the appropriate irradiation wavelengths.
The photolysis experiments were performed in H2O with 2% acetone and in an acetone solution containing 0.25 M tetrabutylammonium, and the chloride (TBACl) in a 1 × 1 cm quartz cuvette, and the irradiation wavelengths were selected with a 395 nm long-pass filter. The photon flux of the arc lamp with a 335 nm long-pass filter and a 400 nm bandpass filter was determined to be 4.30 ± 0.25 × 10^−8 mol photons/min by ferrioxalate actinometry as previously described in detail. The quantum yields (Φ) for ligand dissociation of 2 were determined in each of the solvent systems in a 1 × 1 cm quartz cuvette. The decrease in the MLCT absorption maximum of the reactant with ε = 10,360 M^–1cm^–1 at 412 nm as a function of time was monitored at early irradiation times to calculate the rate of moles of reactant converted to intermediate, I. The increase of the MLCT absorption maximum of the product at 490 nm (ε = 9,300 M^–1cm^–1) was monitored at irradiation times after the formation of the intermediate to determine the rate of moles of product P formed. These rates along with the photon flux were used to calculate the quantum yields for the first and second steps, ΦR→I and ΦI→P, respectively.

Data set [2] deals with T1, CTSB activity in Hs578T cell lysates (Homo sapiens, UniProt P07858).
T1 construct: endogenous in cells; host or cells: Hs578T (ATCC) cell lysate
Kind of data set: Inhibition of cellular cathepsin B activity in Hs578T cell lysates (Z-Arg-Arg-AMC). It counts as biochemical. Conditions: for IC50: Hs578T lysate. On the procedure:
(§1) TNBC cell lines were originally purchased from American Type Culture Collection (Rockville, MD, USA) and authenticated using the STR PowerPlex 16 system (Promega). Cells were cultured in basal medium supplemented with 10% fetal bovine serum (MDA-MB-231, DMEM; Hs578T, DMEM + 10 μg/ml bovine insulin). To prepare cell lysates, cells were grown on 100 mm dishes to ~80% confluency, washed twice with PBS (phosphate buffered saline), scraped and lysed in SME buffer (250 mM sucrose, 25 mM MES, 1 mM EDTA, pH 6.5, and 0.1% Triton X-100) and then sonicated on ice three times for 10 sec each. CTSB activity was measured as previously described. Briefly, 50 μl of cell lysate was incubated with 300 μl of activator buffer (5 mM EDTA, 10 mM DTT (pH 5.2) at 37°C during 15 min. The sample (1 μl) was added to 100 μl of the activator buffer containing cell lysate and the reaction mixtures were conducted during 45 min under dark (no irradiation) and light (irradiation at 250 W, 395–750 nm) conditions for 45 min with a tungsten halogen lamp and H2O filter on separate plates as described above. The experiments were carried out in triplicate (on 96-well flat bottom black plates) at pH 6.0.

Data set [3] in a line: Stability in the dark, determined spectrophotometrically (ln A vs. t). It counts as physicochemical. An excerpt: This was expected because cis-[Ru(bpy)2Cl2] was used as a racemic mixture of Δ- and Λ stereoisomers. […] The electronic absorption spectrum of 2 is highly consistent with other dications of the general formula cis-[Ru(bpy)2(RCN)2]^2+, where RCN is MeCN,^130 5-cyanouracil,^124 and protease inhibitors structurally related to 1 [17–18]. Data for 2 in water containing 2% acetone show a maximum at 420 nm (ε = 10,360 M^-1cm^-1) assigned to a singlet metal-to-ligand charge transfer (^1MLCT) transition.

In data set [4] the target is T2, CTSB activity in MDA-MB-231 cell lysates (Homo sapiens, UniProt P07858).
T2 construct: endogenous in cells; host or cells: MDA-MB-231 (ATCC) cell lysate
As to the kind of experiment: Inhibition of cellular cathepsin B activity in MDA-MB-231 cell lysates (Z-Arg-Arg-AMC). It counts as biochemical. As to conditions: for IC50: MDA-MB-231 lysate. On the procedure:
as §1

Data set [5] relates to MDA-MB-231 3D MAME cultures. As to the kind of experiment: Cell viability (Live/Dead) assay, MDA-MB-231 3D MAME cultures. As to conditions: in the dark or the light, 4 days. It counts as cell-based. On the procedure:
Three-dimensional cultures of TNBC cells were established, grown and treated with compound 2 as described above. After 4 days, a cell viability assay was performed to assess the cytotoxic effects of compound 2. The assay has two components: Calcein AM that fluoresces green when cleaved by intracellular esterases thereby labeling live cells and Ethidium Homodimer-1 that fluoresces red when incorporated in the DNA of dead cells. A solution of 4 μM Ethidium Homodimer-1 and 2 μM Calcein AM was prepared in sterile PBS. Cultures were incubated for 30 minutes at 37°C, washed once with warm PBS and replenished with warm MEGM media for live cell imaging. The samples were then imaged at 10X magnification using a Zeiss 510 META confocal microscope. Tiled 16-panel images and z-stacks through the depth of structures were captured. The images were processed to show top views using Volocity software.

[6] abbreviates: acetone solution containing 0.25 M TBACl.
[7] abbreviates: water (2% acetone), λirr = 400 nm.
The mark [8] stands for this setting: dark (no irradiation) 45 min, read-out: IC50 (dark).
Setting [9] is: light λirr = 395–750 nm, 45 min, read-out: IC50 (light).

With `Cc1cccc(CC(NC(=O)c2ccc(Cl)c(Cl)c2)C(=O)NCC#N)c1.Cc1cccc(CC(NC(=O)c2ccc(Cl)c(Cl)c2)C(=O)NCC#N)c1.F[B-](F)(F)F.F[B-](F)(F)F.[Ru+2].c1ccc(-c2ccccn2)nc1.c1ccc(-c2ccccn2)nc1` (mixture of isomers) [compound 2, Δ- and Λ-cis [Ru(bpy)2(1)2](BF4)2], the “quantum yield of ligand exchange, first step ΦR→I” value in data set [1] (setting [6]) is reported as 0.056(9); in data set [1] (setting [7]), 0.026(4). For the same molecule, the “quantum yield of ligand exchange, second step ΦI→P” value in data set [1] (setting [6]) is given as 0.032; in data set [1] (setting [7]), 0.0045(9). For the same molecule, the dark/light ratio in data set [2] (Hs578T cell lysates) is given as 12.6; in data set [4] (MDA-MB-231 cell lysates) it was 79.6. Besides, the 50% inhibitory concentration (IC50) was found to be 11.2 µM in data set [2] (setting [8]), 0.89 µM in data set [2] (setting [9]), 126 µM in data set [4] (setting [8]) and 1.58 µM in data set [4] (setting [9]). The “kobs, rate constant for decomposition in the dark” value in data set [3] (DMSO, 293 ± 2 K) was 1.6 ± 0.1 × 10^−7 s^-1; in data set [3] (phosphate buffered saline, pH 6.5, 293 ± 2 K), 1.2 ± 0.1 × 10^−6 s^-1. In data set [5], the “toxicity by cell viability assay” value is “did not observe any toxicity”.
